Experimental data from ChEMBL document CHEMBL1139872, “A high-throughput screen for aggregation-based inhibition in a large compound library” (J Med Chem, 2007).

Assays:
Beta-lactamase [1] = target: T1, Beta-lactamase (Escherichia coli K-12, UniProt P00811); assay: Inhibition of Escherichia coli AmpC beta lactamase using relaxed assay conditions in presence of 0.00001% Triton X-100 detergent
Beta-lactamase [2] = target: T1, Beta-lactamase
Description: Aggregate based-inhibition of Escherichia coli AmpC beta lactamase using stringent assay conditions in presence of 0.01% Triton X-100 detergent

T1 sequence (P00811 whole entry): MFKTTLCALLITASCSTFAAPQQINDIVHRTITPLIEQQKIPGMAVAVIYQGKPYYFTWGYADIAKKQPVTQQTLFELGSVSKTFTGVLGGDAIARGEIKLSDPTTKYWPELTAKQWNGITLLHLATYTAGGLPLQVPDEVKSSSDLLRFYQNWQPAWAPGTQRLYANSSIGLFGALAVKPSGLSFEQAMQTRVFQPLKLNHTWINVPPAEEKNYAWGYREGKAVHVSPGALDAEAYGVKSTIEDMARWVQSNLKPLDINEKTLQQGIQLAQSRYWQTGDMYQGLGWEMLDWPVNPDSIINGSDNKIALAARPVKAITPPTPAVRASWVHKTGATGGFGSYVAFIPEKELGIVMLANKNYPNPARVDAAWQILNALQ

SMILES	IC50 (Beta-lactamase [1]) [µM]	IC50 (Beta-lactamase [2]) [µM]
O=C(Nc1cccc2ccccc12)c1ccc(Br)o1	120	> 200
O=c1[nH]c2cc(Cl)ccc2c(O)c1-c1cccc(Oc2ccccc2)c1	22	126
Cc1ccc2nc(-c3ccccc3)cc(O)c2c1	> 100	> 100
Clc1ccc(CSC(Cn2ccnc2)c2ccc(Cl)cc2Cl)cc1 (stereo not given) [SULCONAZOLE]	20	100
Fc1c(F)c(F)c(CSc2nc3ccccc3[nH]2)c(F)c1F	130	> 300
Cc1cc2c(C(C)C)c(O)c(O)c(C=O)c2c(O)c1-c1c(C)cc2c(C(C)C)c(O)c(O)c(C=O)c2c1O [GOSSYPOL]	46	82
COc1c(F)c(F)c(C(=O)Nc2ccc(NC(=O)c3ccco3)cc2)c(F)c1F	20	> 66
O=C(Nc1ccc(Oc2ccc(NC(=O)c3ccco3)c(NC(=O)c3ccco3)c2)cc1)c1ccco1	20	40
Clc1ccccc1C(c1ccccc1)(c1ccccc1)n1ccnc1 [CLOTRIMAZOLE]	35	150
Cc1cccc(OCC(=O)Nc2cccc(-c3nnc(-c4ccccc4)o3)c2)c1C	13	> 66
